Laboratory results published in ChEMBL document CHEMBL3421627, “Synthesis and biological evaluation of novel pyrazoline derivatives as potent anti-inflammatory agents” (Bioorg Med Chem Lett, 2015).
Activity calls are given as the source filed them. The rule behind the calls is not given here.

What was measured:
RAW264.7 [1] = experiment: Anti-inflammatory activity in mouse RAW264.7 cells assessed as inhibition of LPS-induced nitric oxide production at 10 uM pre-incubated for 2 hrs before LPS stimulation for 18 hrs by Griess reagent based colorimetric method; type: functional
RAW264.7 [2] = experiment: Cytotoxicity against mouse RAW264.7 cells assessed as reduction in cell viability after 24 hrs in presence of LPS by MTT assay; type: cell-based; settings: RAW264.7, 24 h
RAW264.7 [3] = experiment: Cytotoxicity against mouse RAW264.7 cells assessed as reduction in cell viability after 24 hrs in absence of LPS by MTT assay; type: cell-based; settings: RAW264.7, 24 h
[4] = molecular target: T1, Nitric oxide synthase, inducible (Mus musculus, UniProt P29477); experiment: Inhibition of iNOS in LPS-stimulated mouse RAW264.7 cells using L-Arginine substrate incubated for 2 hrs by fluorescence spectrometry; type: cell-based
T1 sequence (P29477 whole entry): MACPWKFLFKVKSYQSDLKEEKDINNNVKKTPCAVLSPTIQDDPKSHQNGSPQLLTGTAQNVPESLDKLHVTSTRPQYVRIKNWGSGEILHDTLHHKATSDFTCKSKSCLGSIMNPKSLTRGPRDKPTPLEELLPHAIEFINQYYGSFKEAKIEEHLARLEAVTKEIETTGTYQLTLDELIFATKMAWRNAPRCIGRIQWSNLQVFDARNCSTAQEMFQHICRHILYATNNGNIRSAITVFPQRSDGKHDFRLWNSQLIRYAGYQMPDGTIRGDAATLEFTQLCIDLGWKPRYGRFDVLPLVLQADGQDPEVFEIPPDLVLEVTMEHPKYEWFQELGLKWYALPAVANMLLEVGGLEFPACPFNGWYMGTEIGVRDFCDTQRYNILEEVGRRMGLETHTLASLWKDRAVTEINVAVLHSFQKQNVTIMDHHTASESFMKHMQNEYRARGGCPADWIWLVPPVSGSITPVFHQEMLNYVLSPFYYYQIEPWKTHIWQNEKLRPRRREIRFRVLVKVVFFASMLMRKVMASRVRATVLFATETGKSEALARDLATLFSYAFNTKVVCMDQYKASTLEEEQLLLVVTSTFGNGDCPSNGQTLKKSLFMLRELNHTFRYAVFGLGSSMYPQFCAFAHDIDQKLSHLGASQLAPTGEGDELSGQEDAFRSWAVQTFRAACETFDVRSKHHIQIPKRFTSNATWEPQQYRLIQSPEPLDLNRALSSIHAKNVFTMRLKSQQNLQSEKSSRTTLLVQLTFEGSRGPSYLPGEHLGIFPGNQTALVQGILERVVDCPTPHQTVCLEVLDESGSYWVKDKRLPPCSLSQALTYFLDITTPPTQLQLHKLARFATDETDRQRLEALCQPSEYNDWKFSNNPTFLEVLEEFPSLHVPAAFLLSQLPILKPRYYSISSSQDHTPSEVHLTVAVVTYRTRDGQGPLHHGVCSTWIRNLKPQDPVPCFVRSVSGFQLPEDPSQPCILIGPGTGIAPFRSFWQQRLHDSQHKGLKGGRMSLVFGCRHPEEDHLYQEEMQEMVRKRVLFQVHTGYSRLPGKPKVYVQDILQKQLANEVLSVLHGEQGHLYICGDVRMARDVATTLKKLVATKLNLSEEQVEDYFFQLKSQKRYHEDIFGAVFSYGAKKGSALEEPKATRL

Mus musculus [5] = experiment: Anti-inflammatory activity in ICR mouse model of carrageenan-induced edema assessed as inhibition of paw thickness at 10 mg/kg, ip; type: functional; settings: route intraperitoneal
Mus musculus [6] = experiment: Anti-inflammatory activity in ICR mouse model of adjuvant-induced arthritis assessed as reduction in arthritis severity scores at 25 and 50 mg/kg, po dosed once daily from day 17 after vaccination; type: functional, organism-based; design: dose 50 mg/kg
Mus musculus [7] = experiment: Anti-inflammatory activity in ICR mouse model of carrageenan-induced edema assessed as inhibition of paw thickness at 25 mg/kg, ip; type: functional, organism-based; design: dose 25 mg/kg
Mus musculus [8] = experiment: Anti-inflammatory activity in ICR mouse model of adjuvant-induced arthritis assessed as reduction in histopathological changes at 50 mg/kg, po dosed once daily from day 17 after vaccination by H and E staining method; type: functional, organism-based; design: dose 50 mg/kg
Mus musculus [9] = experiment: Anti-inflammatory activity in ICR mouse model of carrageenan-induced edema assessed as inhibition of paw thickness at 50 mg/kg, ip; type: functional; settings: route intraperitoneal

Structure (SMILES) | inhibition at 10 µM (RAW264.7 [1]) [%] | further results
COc1ccc(C2=NN(c3ccc(F)cc3)C(c3cc(OC)c(OC)c(OC)c3)C2)c2c1C=CC(C)(C)O2 (configuration not stated) | 30.8 | –
COc1ccc(C2=NN(c3ccc(S(N)(=O)=O)cc3)C(c3cc(OC)c(OC)c(OC)c3)C2)c2c1C=CC(C)(C)O2 (configuration not stated) | 30.5 | –
COc1ccc(C2=NN(C(=O)c3ccccc3C(F)(F)F)C(c3cc(OC)c(OC)c(OC)c3)C2)c2c1C=CC(C)(C)O2 (configuration not stated) | 18.9 | –
COc1ccc(C2=NN(S(=O)(=O)c3cc(C)cc(C)c3)C(c3cc(OC)c(OC)c(OC)c3)C2)c2c1C=CC(C)(C)O2 (configuration not stated) | 26.9 | –
COc1ccc(C2=NN(S(=O)(=O)c3ccc(C)cc3)C(c3cc(OC)c(OC)c(OC)c3)C2)c2c1C=CC(C)(C)O2 (configuration not stated) | 35.9 | –
COc1ccc(C2=NN(C(=O)c3cccc(C(F)(F)F)c3)C(c3cc(OC)c(OC)c(OC)c3)C2)c2c1C=CC(C)(C)O2 (configuration not stated) | 22.4 | –
COc1ccc(C2=NN(C(=O)CCCl)C(c3cc(OC)c(OC)c(OC)c3)C2)c2c1C=CC(C)(C)O2 (configuration not stated) | 62.1 | –
COc1ccc(C2=NN(S(=O)(=O)c3ccc([N+](=O)[O-])cc3)C(c3cc(OC)c(OC)c(OC)c3)C2)c2c1C=CC(C)(C)O2 (configuration not stated) | 41 | –
COc1ccc(C2=NN(S(=O)(=O)c3ccc(F)cc3)C(c3cc(OC)c(OC)c(OC)c3)C2)c2c1C=CC(C)(C)O2 (configuration not stated) | 23.2 | –
CCC(=O)N1N=C(c2ccc(OC)c3c2OC(C)(C)C=C3)CC1c1cc(OC)c(OC)c(OC)c1 (configuration not stated) | 65.9 | –
COc1ccc(C2=NN(C(C)=O)C(c3cc(OC)c(OC)c(OC)c3)C2)c2c1C=CC(C)(C)O2 (configuration not stated) | 89.8 | IC50 (RAW264.7 [2]): > 100 µM; IC50 (RAW264.7 [3]): > 100 µM; IC50 [4]: 7.3 µM
COc1ccc(C2=NN(C(=O)CCl)C(c3cc(OC)c(OC)c(OC)c3)C2)c2c1C=CC(C)(C)O2 (configuration not stated) | 96.7 | IC50 (RAW264.7 [2]): 19.3 µM; IC50 (RAW264.7 [3]): 30.8 µM; IC50 [4]: 2.5 µM
COc1ccc(C2=NN(C(=O)c3cccc(F)c3)C(c3cc(OC)c(OC)c(OC)c3)C2)c2c1C=CC(C)(C)O2 (configuration not stated) | 35.1 | –
COc1ccc(C2=NN(c3ccc(C(=O)O)cc3)C(c3cc(OC)c(OC)c(OC)c3)C2)c2c1C=CC(C)(C)O2 (configuration not stated) | 19.4 | –
COc1ccc(C2=NNC(c3cc(OC)c(OC)c(OC)c3)C2)c2c1C=CC(C)(C)O2 (configuration not stated) | 49.2 | –
COc1ccc(C2=NN(C(=O)C(C)C)C(c3cc(OC)c(OC)c(OC)c3)C2)c2c1C=CC(C)(C)O2 (configuration not stated) | 54.2 | –
COc1ccc(C2=NN(c3ccc(C#N)cc3)C(c3cc(OC)c(OC)c(OC)c3)C2)c2c1C=CC(C)(C)O2 (configuration not stated) | 40.8 | –
COc1ccc(C2=NN(C(=O)c3ccc(F)cc3)C(c3cc(OC)c(OC)c(OC)c3)C2)c2c1C=CC(C)(C)O2 (configuration not stated) | 17.5 | –
COc1ccc(C2=NN(C(=O)c3cccc(Cl)c3)C(c3cc(OC)c(OC)c(OC)c3)C2)c2c1C=CC(C)(C)O2 (configuration not stated) | 29.1 | –
COc1ccc(C2=NN(c3ccc([N+](=O)[O-])cc3)C(c3cc(OC)c(OC)c(OC)c3)C2)c2c1C=CC(C)(C)O2 (configuration not stated) | 15.7 | –
COc1ccc(C2=NN(C(=O)c3cc(OC)c(OC)c(OC)c3)C(c3cc(OC)c(OC)c(OC)c3)C2)c2c1C=CC(C)(C)O2 (configuration not stated) | 57.2 | –
COc1ccc(C2=NN(c3ccc(C(F)(F)F)cc3)C(c3cc(OC)c(OC)c(OC)c3)C2)c2c1C=CC(C)(C)O2 (configuration not stated) | 14.4 | –
COc1ccc2c(c1)c(CC(=O)O)c(C)n2C(=O)c1ccc(Cl)cc1 [INDOMETHACIN] | 60.6 | inhibition in vivo at 10 mg/kg (Mus musculus [5]): 32%; IC50 (RAW264.7 [2]): 9.2 µM; IC50 (RAW264.7 [3]): 10.7 µM; IC50 [4]: 4.5 µM
CCS(=O)(=O)N1N=C(c2ccc(OC)c3c2OC(C)(C)C=C3)CC1c1cc(OC)c(OC)c(OC)c1 (configuration not stated) | 42.5 | –
COc1ccc(C2=NN(C(=O)c3ccc(Cl)cc3)C(c3cc(OC)c(OC)c(OC)c3)C2)c2c1C=CC(C)(C)O2 (configuration not stated) | 34.7 | –
COc1ccc(C(=O)N2N=C(c3ccc(OC)c4c3OC(C)(C)C=C4)CC2c2cc(OC)c(OC)c(OC)c2)cc1 (configuration not stated) | 78 | inhibition (Mus musculus [6]): Dose-dependent effect; inhibition (Mus musculus [7]): Active; inhibition (Mus musculus [8]): Active; IC50 (RAW264.7 [2]): > 100 µM; IC50 (RAW264.7 [3]): > 100 µM; inhibition in vivo at 50 mg/kg (Mus musculus [9]): 54.2%; IC50 [4]: 24.8 µM
COc1ccc(C2=NN(C(=O)c3ccc(C(F)(F)F)cc3)C(c3cc(OC)c(OC)c(OC)c3)C2)c2c1C=CC(C)(C)O2 (configuration not stated) | 23.1 | –
CCCS(=O)(=O)N1N=C(c2ccc(OC)c3c2OC(C)(C)C=C3)CC1c1cc(OC)c(OC)c(OC)c1 (configuration not stated) | 40.8 | –
COc1ccc(C2=NN(S(=O)(=O)C3CC3)C(c3cc(OC)c(OC)c(OC)c3)C2)c2c1C=CC(C)(C)O2 (configuration not stated) | 31.9 | –
COc1ccc(C2=NN(C(=O)c3ccccc3F)C(c3cc(OC)c(OC)c(OC)c3)C2)c2c1C=CC(C)(C)O2 (configuration not stated) | 27.8 | –
